Consider 1 compound from US8143256B2, “Cyclic amide and ester pyrazinoylguanidine sodium channel blockers” (Parion Sciences, Inc., priority 2004, dated 2012).

The melting point is the temperature of the solid-liquid transition.

Take `N=C(NCCCCN1CCC(CCCC(N)=O)CC1)NC(=O)c1nc(Cl)c(N)nc1N` [Example 1, 4-(1-{4-[N′-(3,5-diamino-6-chloropyrazine-2-carbonyl)guanidino]-butyl}piperidin-4-yl)butyramide]: the melting point lay in the range of 143 to 147 °C.
